# Patent US20200375975A1, “Treatment of Renal Cell Carcinoma with Lenvatinib and Everolimus” (Eisai R&D Management Co., Ltd., priority 2016, published 2020)
# Experiments:
# [1] = test system: patients with unresectable advanced or metastatic renal cell carcinoma (RCC); assay: Same Phase 2 trial: PFS and ORR by retrospective independent blinded review of scans; type: in vivo, human; details: combo 18 mg+5 mg; everolimus 10 mg
# [2] = test system: patients with unresectable advanced or metastatic renal cell carcinoma (RCC); assay: Same Phase 2 trial: laboratory abnormalities, Grade 3-4; type: in vivo, human; details: combo (head prints 10 mg+5 mg), LENVIMA 24 mg, everolimus 10 mg
# Description: Table 4 provides a summary of laboratory abnormalities observed in the patients in the RCC trial described in Example 1.
# [3] = test system: patients with unresectable advanced or metastatic renal cell carcinoma (RCC); assay: Same Phase 2 trial: adverse reactions (CTCAE grades), once daily dosing; details: everolimus 10 mg;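 also: adverse events are any unwanted sign, symptom, abnormal lab finding or disease occurring in time with treatment, whether or not drug-related, and CTCAE grade expresses their severity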
# Description: The CTCAE provides a grading (severity) scale for each adverse event term. […] The CTCAE grade refers to the severity of the AE.
# The safety data described below are derived from the trial described in Example 1, which randomized (1:1:1) patients with unresectable advanced or metastatic renal cell carcinoma (RCC) to LENVIMA® 18 mg+everolimus 5 mg (n=51), LENVIMA® 24 mg (n=52), or everolimus 10 mg (n=50) once daily.
# [4] = test system: patients with unresectable advanced or metastatic renal cell carcinoma (RCC); assay: Phase 2 trial in RCC after one prior VEGF-targeted treatment: efficacy (PFS, OS, ORR), investigator assessment, RECIST 1.1; LENVIMA 18 mg+everolimus 5 mg vs LENVIMA 24 mg vs everolimus 10 mg; details: combo 18 mg+5 mg, everolimus 10 mg
# Description: A multicenter, randomized, open-label, trial was conducted to determine the safety and efficacy of lenvatinib administered alone or in combination with everolimus in subjects with unresectable advanced or metastatic renal cell carcinoma (RCC). The trial consisted of a Phase 1b dose finding and a Phase 2 portion. The Phase 2 portion enrolled a total of 153 patients with unresectable advanced or metastatic RCC following one prior VEGF-targeted treatment. Patients were required, inter alia, to have histological confirmation of predominant clear cell RCC, radiographic evidence of disease progression according to Response Evaluation Criteria in Solid Tumors Version 1.1 (RECIST), one prior VEGF-targeted therapy, and Eastern Cooperative Oncology Group (ECOG) Performance Status of 0 or 1.
# Patients were randomly allocated to one of 3 arms: (i) LENVIMA® (mesylate salt of lenvatinib) 18 mg+everolimus 5 mg, (ii) LENVIMA® 24 mg, or (iii) everolimus 10 mg, using a 1:1:1 ratio. Patients were stratified by hemoglobin level (≤13 g/dL vs. >13 g/dL for males and ≤11.5 g/dL vs >11.5 g/dL for females) and corrected serum calcium (≥10 mg/dL vs. <10 mg/dL).
# The primary efficacy outcome measure, based on investigator assessed tumor response, was progression-free survival (PFS) of the LENVIMA® plus everolimus arm vs. the everolimus arm and of the LENVIMA® arm vs. the everolimus arm. Other efficacy outcome measures included investigator-assessed overall survival (OS) and objective response rate (ORR).
# Tumor assessments were evaluated according to RECIST.
# [5] = combo 18 mg+5 mg, LENVIMA 24 mg
compound,measurement,setting,value
"CO[C@H]1C[C@@H]2CC[C@@H](C)[C@@](O)(O2)C(=O)C(=O)N2CCCC[C@H]2C(=O)O[C@H]([C@H](C)C[C@@H]2CC[C@@H](OCCO)[C@H](OC)C2)CC(=O)[C@H](C)/C=C(\C)[C@@H](O)[C@@H](OC)C(=O)[C@H](C)C[C@H](C)/C=C/C=C/C=C/1C [Everolimus, (1R,9S,12S,15R,16E,18R,19R,21R,23 S,24E,26E,28E,30S,32S,35R)-1,18-dihydroxy-12-{(1R)-2-[(1 S,3R,4R)-4-(2-hydroxyethoxy)-3-methoxycyclohexyl]-1-methylethyl}-19,30-dimethoxy-15,17,21,23,29,35-hexamethyl-11,36-dioxa-4-aza-tricyclo[30.3.1.0^4,9]hexatriaconta-16,24,26,28-tetraene-2,3,10,14,20-pentaone]","ORR, independent blinded review",[1],no subject had an objective response
same,"Alkaline phosphatase increased, Grades 3-4",[2],0%
same,"Aspartate aminotransferase (AST) increased, Grades 3-4",[2],0%
same,"Hemoglobin decreased, Grades 3-4",[2],16%
same,"Hyperglycemia, Grades 3-4",[2],16%
same,"Hyperkalemia, Grades 3-4",[2],2%
same,"Hypocalcemia, Grades 3-4",[2],2%
same,"Hypokalemia, Grades 3-4",[2],2%
same,"Hyponatremia, Grades 3-4",[2],6%
same,"Hypophosphatemia, Grades 3-4",[2],6%
same,"Lipase increased, Grades 3-4",[2],12%
same,"Lymphocyte count decreased, Grades 3-4",[2],20%
same,"Platelet count decreased, Grades 3-4",[2],0%
same,"Aspartate aminotransferase (AST) increased, Grades 3-4",[2]; listed as everolimus,no patients
same,"arterial thromboembolic events, Grade 3 or greater",[3]; LENVIMA 24 mg,4%
same,"Adverse reactions led to dose reductions or interruption, patients",[3]; [5],54%
same,"Arthralgia/myalgia, All Grades",[3]; [5],32%
same,"Arthralgia/myalgia, Grades 3-4",[3]; [5],0%
same,"Confusional state, All Grades",[3]; [5],0%
same,"Confusional state, Grades 3-4",[3]; [5],0%
same,"Constipation, All Grades",[3]; [5],18%
same,"Constipation, Grades 3-4",[3]; [5],0%
same,"Cough, All Grades",[3]; [5],30%
same,"Cough, Grades 3-4",[3]; [5],0%
same,"Decreased appetite, All Grades",[3]; [5],18%
same,"Decreased appetite, Grades 3-4",[3]; [5],0%
same,"Decreased weight, All Grades",[3]; [5],8%
same,"Decreased weight, Grades 3-4",[3]; [5],0%
same,"Dehydration, All Grades",[3]; [5],2%
same,"Dehydration, Grades 3-4",[3]; [5],0%
same,"Diarrhea, All Grades",[3]; [5],34%
same,"Diarrhea, Grades 3-4",[3]; [5],2%
same,"Discontinuation of treatment due to hemorrhagic events, patients",[3]; [5],no discontinuations
same,"Dyspepsia, All Grades",[3]; [5],12%
same,"Dyspepsia, Grades 3-4",[3]; [5],0%
same,"Dysphonia, All Grades",[3]; [5],4%
same,"Dysphonia, Grades 3-4",[3]; [5],0%
same,"Dyspnea, All Grades",[3]; [5],28%
same,"Dyspnea, Grades 3-4",[3]; [5],8%
same,"Epistaxis, All Grades",[3]; [5],24%
same,"Epistaxis, Grades 3-4",[3]; [5],0%
same,Events of renal impairment,[3]; [5],12%
same,"Fatigue, All Grades",[3]; [5],38%
same,"Gastrointestinal disorders and Abdominal pain, All Grades",[3]; [5],8%
same,"Gastrointestinal disorders and Abdominal pain, Grades 3-4",[3]; [5],0%
same,"Grade 3 or greater diarrhea, patients",[3]; [5],2%
same,"Grade 3 or greater renal failure or impairment, incidence",[3]; [5],2%
same,"Headache, Grades 3-4",[3]; [5],2%
same,"Hypertension, All Grades",[3]; [5],10%
same,"Hypertension, Grades 3-4",[3]; [5],2%
same,"Insomnia, All Grades",[3]; [5],2%
same,"Insomnia, Grades 3-4",[3]; [5],0%
same,"Musculoskeletal chest pain, All Grades",[3]; [5],4%
same,"Musculoskeletal chest pain, Grades 3-4",[3]; [5],0%
same,"Nausea, All Grades",[3]; [5],16%
same,"Nausea, Grades 3-4",[3]; [5],0%
same,"Oral inflammation, All Grades",[3]; [5],50%
same,"Oral inflammation, Grades 3-4",[3]; [5],4%
same,"Oral pain, All Grades",[3]; [5],4%
same,"Oral pain, Grades 3-4",[3]; [5],0%
same,"Proteinuria, All Grades",[3]; [5],14%
same,"Proteinuria, Grades 3-4 (text: Grade 3 or greater)",[3]; [5],2%
same,"Pruritus, All Grades",[3]; [5],14%
same,"Pruritus, Grades 3-4",[3]; [5],0%
same,"Pyrexia, All Grades",[3]; [5],10%
same,"QT/QTc interval prolongation, patients",[3]; [5],No reports
same,"Rash, All Grades",[3]; [5],30%
same,"Rash, Grades 3-4",[3]; [5],0%
same,"Renal failure events, All Grades",[3]; [5],2%
same,"Renal failure events, Grades 3-4",[3]; [5],2%
same,"Vomiting, Grades 3-4",[3]; [5],0%
same,"arterial thromboembolic events, patients",[3]; [5],6%
same,"decreased ejection fraction and cardiac failure, Grade 3",[3]; [5],2%
same,"decreased ejection fraction and cardiac failure, patients",[3]; [5],4%
same,"epistaxis, Grade 1",[3]; [5],20%
same,"gastrointestinal perforation or fistula, patients",[3]; [5],no patients
same,"hemorrhagic events, Grade 3 or greater",[3]; [5],2%
same,"hemorrhagic events, patients",[3]; [5],28%
same,"hypothyroidism, patients",[3]; [5],2%
same,patients discontinued treatment for adverse reactions,[3]; [5],6 (12%) n (%)
same,elevation of TSH level post baseline in patients with a normal TSH at baseline,[3]; combo 18 mg+5 mg,none
same,"epistaxis, Grade 2",[3],4%
same,Number of complete responses (%),[4],0 n (%)
same,Number of partial responses (%),[4],3 (6) n (%)
same,Number of progressive disease (%),[4],12 (24) n (%)
same,Number of stable disease (%),[4],31 (62) n (%)
same,"Overall Survival (updated analysis): Number of deaths, n (%)","[4]; cutoff Jul. 31, 2015",37 (74) n (%)
same,Overall Survival: Number of deaths (%),"[4]; cutoff Jun. 13, 2014",26 (52) n (%)
